Consider 5 compounds from paper PMC11394002, “5-Aminothiazoles Reveal a New Ligand-Binding Site on Prolyl Oligopeptidase Which is Important for Modulation of Its Protein–Protein Interaction-Derived Functions” (Journal of Medicinal Chemistry, 2024).

Read-outs that look alike come from different tables or passages of the source.

The subject of test [1] is αSyn dimerization in Neuro2A cells. The test is described as follows: α-Synuclein dimerization assay (split Gaussia luciferase PCA). In kind it is cell-based, mouse.
Test [2] concerns HEK-293 cells stably expressing GFP-LC3B. The experiment in a line: Autophagic flux assay (GFP signal). The format is cell-based, human.
Test [3] has as its system αSyn dimerization in Neuro2A cells. The following applies: luminescence signal percentage of DMSO control with SEM, cited from earlier work.
Test [4] concerns HEK-293 cells stably expressing GFP-LC3B. The conditions noted are these: GFP signal percentage of DMSO control with SEM, ref 16 or 19; cited from earlier work.

For the compound `CC(C)c1nc(CCc2c[nH]c3ccccc23)sc1N1CCCC1` [Compound 16k, 2-(2-(1H-Indol-3-yl)ethyl)-4-isopropyl-5-(pyrrolidin-1-yl)thiazole], in test [1] (10 μM, SAR discussion), the “effect on αSyn dimerization (in words)” value is “loss of activity”. Besides, the “effect on autophagy (in words)” value in test [2] (10 μM, SAR discussion) was “loss of activity”.
For the compound `C[C@H](NC(=O)CCCc1ccccc1)C(=O)N1CCC[C@H]1c1nnn[nH]1` [HUP-28], the “αSyn dimerization at 10 μM” value in test [3] (ref 16 or 19) is 75 ± 5%. Further, the “autophagy at 10 μM” value in test [4] was 71 ± 6%.
As for `Cc1nc(CCCc2ccccc2)sc1N1CCC[C@H]1C#N` [HUP-46, (S)-1-(4-Methyl-2-(3-phenylpropyl)thiazol-5-yl)pyrrolidine-2-carbonitrile], the “concentration of maximal efficacy in the αSyn dimerization assay” value in test [1] is 10 µM. Further, the “autophagic flux, concentration–response” value in test [2] is recorded as “concentration-dependent up to 20 μM”.
On to `Cc1nc(CCCc2ccccc2)oc1N1CCC[C@H]1C#N` [HUP-55], for which the “αSyn dimerization at 10 μM” value in test [3] is given as 85 ± 2%.
With `CO[C@H]1C[C@@H]2CC[C@@H](C)[C@@](O)(O2)C(=O)C(=O)N2CCCC[C@H]2C(=O)O[C@H]([C@H](C)C[C@@H]2CC[C@@H](O)[C@H](OC)C2)CC(=O)[C@H](C)/C=C(\C)[C@@H](O)[C@@H](OC)C(=O)[C@H](C)C[C@H](C)/C=C/C=C/C=C/1C` [Rapamycin], the “GFP signal of the baseline” value in test [2] (rapamycin positive control (0.5 μM), maximum effect in this assay) is “about 65%”.
